Results taken from PubChem BioAssay (NCI).
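Interpolation was linear, between the two tested concentrations surrounding the appropriate level; five concentrations were tested over 48 hours in 96-well plates. GI50 is the concentration that inhibits growth by half. Definition used: TGI = concentration required for complete inhibition of growth.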

Assays:
Test in all cases: inhibition of tumour cell growth, NCI panel, 48 h
[1] = system: MDA-MB-435
[2] = system: T-47D breast
[3] = system: SF-268 CNS
[4] = system: HCT-15 colon
[5] = system: UO-31 renal
[6] = system: BT-549 breast
[7] = system: OVCAR-4 ovarian
[8] = system: RXF 393 renal
[9] = system: 786-0 renal
[10] = system: SF-295 CNS

| SMILES | GI50 [1] [µM] | TGI [1] [µM] | GI50 [2] [µM] | TGI [2] [µM] | GI50 [3] [µM] | TGI [3] [µM] | GI50 [4] [µM] | TGI [4] [µM] | GI50 [5] [µM] | TGI [5] [µM] | GI50 [6] [µM] | TGI [6] [µM] | GI50 [7] [µM] | TGI [7] [µM] | GI50 [8] [µM] | TGI [8] [µM] | GI50 [9] [µM] | TGI [9] [µM] | GI50 [10] [µM] | TGI [10] [µM] |
| --- | --- | --- | --- | --- | --- | --- | --- | --- | --- | --- | --- | --- | --- | --- | --- | --- | --- | --- | --- | --- |
| O=C1CCC2(C=C(Br)C(=O)C(Br)=C2)O1 | 4.84 | 11.3 | 2.22 | 5.04 | 15.1 | 28.6 | 2.77 | 8.76 | 5.54 | 11.4 | 13.6 | 26.7 | 2.08 | 4.34 | 2.82 | 6.96 | 17 | 30.8 | 15.9 | 31.7 |
| CCN(CC)CCCCCCCNc1c2ccc(Cl)cc2nc2ccc(OC)cc12 | 1.43 | 3.16 | 2.24 | 4.97 | 1.03 | 2.5 | 0.997 | 6.59 | 0.545 | 2.03 | 1.68 | 3.28 | 0.913 | 2.9 | 0.84 | 2.35 | 0.902 | 2.35 | 0.701 | 2.37 |
| COc1cc(/C=C/C(=O)c2ccc(Cl)cc2)ccc1OS(=O)(=O)c1ccc(C)cc1 | 2.74 | 8.56 | 9.27 | 28.6 | 7.17 | 34 | 1.74 | 3.81 | 6.95 | 21.1 | 5.64 | 18.7 | 12.8 | 80.1 | 13.2 | 29.5 | 10.7 | 24.6 | 9.27 | 26.2 |
| Cc1cc(S(=O)(=O)Nc2nnc(-c3ccccc3)c(-c3ccccc3)n2)c(SCc2ccccc2)cc1Cl | 21.7 | 43.3 | 23.8 | 52.3 | 19.3 | 39.9 | 20.3 | 43.3 | 26 | 73.5 | 18.9 | 41.8 | 19.9 | 37.2 | 19.8 | 39.2 | 14.5 | 29.8 | 19.5 | 38.5 |
| CCN(CC)CCOc1ccc(/C=C2\CC3C4CC=C5C[C@@H](N6CCCC6)CC[C@]5(C)C4CC[C@]3(C)[C@H]2O)cc1OC (stereo not given in full) | 3.86 | 14.5 | 7.75 | 22.6 | 11.8 | > 76.6 | 3.45 | 22.4 | 4.29 | 16.9 | 4.7 | 19.3 | 24 | > 82.3 | 3.79 | 17.8 | 2.64 | 10.1 | 3.86 | 13.5 |
| CN(C)c1ccc2c3c(c(=O)oc2c1)CCC3 |  | > 100 |  | > 100 |  | > 100 |  | > 100 |  | > 100 |  | > 100 |  | > 100 |  | > 100 |  | > 100 |  | > 100 |
| C[C@]12CC[C@@H]3c4ccc(O)cc4CC[C@H]3[C@@H]1CC[C@@H]2NS(=O)(=O)Cc1ccc(Cl)cc1 | 2.78 | 9.03 | 2.85 | 8.11 | 3.16 | 12.5 | 2.33 | 7.76 | 1.39 | 5.13 | 2.35 | 5.74 | 2.69 | 13.6 | 2.04 | 6.06 | 2.66 | 6.87 | 1.72 | 3.56 |
| O=C(Nc1ncc(Cc2ccccc2Cl)s1)c1ccc2c(c1)OCCO2 | 0.0399 | 0.22 | 0.333 | > 100 | 1.8 | > 100 | 0.119 | > 100 | 1.13 | > 100 | 0.567 | > 100 | 0.693 | > 68.2 | 0.255 | 1.19 | 0.574 | > 100 | 0.346 | 5.04 |
